≈ marks a conversion by molar mass, not a printed value.
Experiments:
[1] = test system: S. aureus CB-951; experiment: MIC/MBC, microdilution in Mueller-Hinton broth, S. aureus CB-951; assay type: cell-based; conditions: Staphylococcus aureus, CB951, S. aureus CB-951, methicillino resistant, pefloxacino resistant
Protocol: (§1) The products were tested vis-a-vis 7 reference strains
Staphylococcus aureus CB 951
(§2) The preparation of these mother solutions produced, varied according to the molecules as a function of solubility criteria.
(§3) The inoculation is carried out by adding to each cupule 10 μl of a dilution in physiological water of an 18 hour broth of heart/brain broth such that each cupule contains about 10^6 bacteria/ml.
(§4) The minimal inhibitory concentration is read as the first concentration of antibiotic giving no culture which is macroscopically visible after incubation for 18 hours at 37° C.

[2] = solubility in water; assay type: physicochemical; conditions: hydrochloride, pale yellow crystals
[3] = test system: S. aureus ATCC 25923; experiment: MIC/MBC, microdilution in Mueller-Hinton broth, S. aureus ATCC 25923; assay type: cell-based; conditions: Staphylococcus aureus; for MIC: ATCC25923, 18 h at 37° C., about 10^6 bacteria/ml, read-out: MINIMAL INHIBITORY CONCENTRATION (MIC); for MBC: ATCC25923, read-out: MINIMAL BACTERICIDAL CONCENTRATION (MBC)
Protocol: as §1
Straphylococcus aureus ATCC 25923
as §2, §3, §4

[4] = test system: E. coli ATCC 25922; experiment: MIC/MBC, microdilution in Mueller-Hinton broth, E. coli; assay type: cell-based; conditions: Escherichia coli; for MIC: ATCC25922, 18 h at 37° C., about 10^6 bacteria/ml, read-out: MINIMAL INHIBITORY CONCENTRATION (MIC); for MBC: ATCC25922, read-out: MINIMAL BACTERICIDAL CONCENTRATION (MBC)
Protocol: as §1
Escherichia coli ATCC 25922
as §2, §3, §4

[5] = test system: Acinetobacter Baumanii ATCC 17904; experiment: MIC/MBC, microdilution in Mueller-Hinton broth, Acinetobacter; assay type: cell-based; conditions: Acinetobacter baumannii
Protocol: as §1
Acinetobacter calcoaceticus variety anitratum ATCC 17903
as §2, §3, §4

[6] = test system: P. aeruginosa ATCC 22853; experiment: MIC/MBC, microdilution in Mueller-Hinton broth, P. aeruginosa; assay type: cell-based; conditions: Pseudomonas aeruginosa; for MIC: ATCC22853, 18 h, read-out: MINIMAL INHIBITORY CONCENTRATION (MIC); for MBC: ATCC22853, read-out: MINIMAL BACTERICIDAL CONCENTRATION (MBC)
Protocol: as §1
Pseudomonas aeruginosa ATCC 22853
as §2, §3, §4

[7] = test system: S. faecalis; experiment: MIC/MBC, microdilution in Mueller-Hinton broth, S. faecalis; assay type: cell-based, Streptococcus faecalis; conditions: Enterococcus faecalis, ATCC25922, read-out: MINIMAL BACTERICIDAL CONCENTRATION (MBC)
Protocol: (§5) The products were tested vis-a-vis 7 reference strains […]
as §2, §3, §4

[8] = test system: S. faecalis ATCC 25922; experiment: as above; assay type: cell-based, Streptococcus faecalis; conditions: Enterococcus faecalis, ATCC25922, 18 h, read-out: MINIMAL INHIBITORY CONCENTRATION (MIC)
Protocol: as §5, §2, §3, §4

| SMILES | MIC ([1]; 18 h at 37° C., about 10^6 bacteria/ml, read-out: MINIMAL INHIBITORY CONCENTRATION (MIC)) [µg/mL] | MBC ([1]; read-out: MINIMAL BACTERICIDAL CONCENTRATION (MBC)) [µg/mL] | solubility in water [2] | MIC [3] [µg/mL] | MBC [3] [µg/mL] | MIC [4] [µg/mL] | MBC [4] [µg/mL] | MIC ([5]; ATCC17904, 18 h, read-out: MINIMAL INHIBITORY CONCENTRATION (MIC)) [µg/mL] | MBC ([5]; ATCC17904, read-out: MINIMAL BACTERICIDAL CONCENTRATION (MBC)) [µg/mL] | MIC [6] [µg/mL] | MBC [6] [µg/mL] | MBC [7] [µg/mL] | MIC [8] [µg/mL] |
| --- | --- | --- | --- | --- | --- | --- | --- | --- | --- | --- | --- | --- | --- |
| NCC1CCN(c2c(F)cc3c(=O)c(C(=O)O)cn(C4CC4)c3c2F)CC1 [Compound 1, 6,8-difluoro-7-[(4-aminomethyl)-1-piperdinyl]-1-(1-cyclopropyl)-4-oxo-1,4-dihydroquinolinyl-3-carboxylic acid] | 0.25 (≈ 0.662 µM) | 0.25 (≈ 0.662 µM) | moderately soluble in water | 0.06 (≈ 0.159 µM) | 0.06 (≈ 0.159 µM) | 2 (≈ 5.3 µM) | 4 (≈ 10.6 µM) | 0.03 (≈ 0.0795 µM) | 0.03 (≈ 0.0795 µM) | > 16 | > 16 | 1 (≈ 2.65 µM) | 1 (≈ 2.65 µM) |
| NCC1CCN(c2cc3c(cc2F)c(=O)c(C(=O)O)cn3C2CC2)CC1 [Compound 5, 6-fluoro-1-cyclopropyl-7-((4-aminomethyl)-1-piperidinyl)-quinolone-3-carboxylic acid] |  |  |  | 0.25 (≈ 0.696 µM) | 0.5 (≈ 1.39 µM) | 0.25 (≈ 0.696 µM) | 0.5 (≈ 1.39 µM) |  |  |  |  |  |  |
| CC(C)n1cc(C(=O)O)c(=O)c2cc(F)c(N3CCC(CN)CC3)c(F)c21 [Compound 7, 6,8-difluoro-1-isopropyl-7-((4-aminomethyl)-1-piperidinyl)-quinolone-3-carboxylic acid] |  |  |  | 3.2 (≈ 8.43 µM) | 6.4 (≈ 16.9 µM) | 1.6 (≈ 4.22 µM) | 1.6 (≈ 4.22 µM) |  |  | 25.6 (≈ 67.5 µM) | > 51.2 | 25.6 (≈ 67.5 µM) | 3.2 (≈ 8.43 µM) |

Source: patent publication US5478841A, “Fluorinated quinolones, process for their preparation and pharmaceutical preparations containing same” (Bouchara S.A., priority 1992, dated 1995)
